Measurements: patent publication US6420570B1, “Psoralen compounds” (priority 1993, dated 2002)

Key:
cell-free virus (HIV) = assay type: cell-based; details: Table 9, 1 minute irradiation, HIV starting titer approximately 5.4 logs
Experimental: Pathogen inactivation efficiency of several compounds of the present invention was evaluated by examining the ability of the compounds to inactivate cell-free virus (HIV). Inactivation of cell-free HIV was performed as follows.
As in the R17 assay, small aliquots of the compounds listed in TABLES 8 and 9, below, at the concentrations listed in the table, were added to stock HIV-1 to a total of 0.5 mL. The stock HIV (10^5-10^7 plaque forming units/mL) was in DMEM/15% FBS. […] Controls included HIV-1 stock only, HIV-1 plus UVA only, and HIV-1 plus the highest concentration of each psoralen tested, with no UVA. Post irradiation, all samples were stores frozen at −70° C. until assayed for infectivity by a microtiter plaque assay. Aliquots for measurement of residual HIV infectivity in the samples treated with a compound of the present invention were withdrawn and cultured.
Residual HIV infectivity was assayed using an MT-2 infectivity assay. […] The assay medium was 85% DMEM (with a high glucose concentration) containing 100 μg of streptomycin, 100 U of penicillin, 50 μg of gentamicin, and 1 μg of amphotericin B per mL, 15% FBS and 2 μg of Polybrene (Sigma Chemical Co., St. Louis, Mo.) per mL. Test and control samples from the inactivation procedure were diluted in 50% assay medium and 50% normal human pooled plasma. The samples were serially diluted directly in 96-well plates (Corning Glass Works, corning, N.Y.). The plates were mixed on an oscillatory shaker for 30 seconds and incubated at 37° C. in a 5% CO2 atmosphere for 1 to 18 hours. […] After an additional 1 hour of incubation at 37° C. in 5% CO2, 0.075 mL of assay medium containing 1.6% SeaPlaque agarose (FMC Bioproducts, Rockland, me.) and prewarmed to 38.5° C. was added to each well. The plates were kept at 37° C. for a few minutes until several plates had accumulated and then centrifuged in plate carriers at 600×g for 20 minutes in a centrifuge precooled to 10° C. In the centrifuge, cell monolayers formed prior to gelling of the agarose layer. The plates were incubated for 5 days at 37° C. in 5% CO2 and stained by the addition of 0.05 mL of 50 μg/mL propidium iodide (Sigma Chemical Co.) in phosphate-buffered saline (pH 7.4) to each well. After 24 to 48 hours, the red fluorescence-stained microplaques were visualized by placing the plates on an 8,000 μW/cm^2 304 nm UV light box (Fotodyne, Inc., New Berlin, Wis.). The plaques were counted at a magnification of ×20 to ×25 through a stereomicroscope. “n” represents the number of runs for which the data point is an average.

R17 = R17 inactivation at constant concentration, varying doses of UV light; assay type: cell-based, bacteriophage R17; details: UV doses 1.0 to 3.0 J/cm^2, FIGS. 11-17
Experimental: Compounds of the present invention were also tested at a constant concentration for varying doses of UV light. Three sets of 1.5 mL tubes were prepared containing 0.6 mL aliquots of R17 in DMEM (prepared as described above). The compound tested was added at the desired concentration and the samples were vortexed. The samples were then irradiated at intervals of 1.0 J/cm^2, until 3.0 J/cm^2 was reached. Between each 1.0 J/cm^2 interval, 100 μL was removed from each sample and placed in the first corresponding dilution tube, then five sequential dilutions were performed for each compound tested, at all 3 irradiation doses, as described above in this example.
Then 50 μL of Hfr 3000 bacteria was added to each tube, 3 mL of top agar was added and the tube contents were vortexed. The contents of each tube was poured into its own LB plate and the plates were incubated overnight at 37° C. Plaques were counted by visual inspection the following morning.

TA100 = TA100 −S9; 1.5 μg/plate
Experimental: In this example the compounds of the present invention are tested for their dark mutagenicity using an Ames assay. The procedures used for the Salmonella mutagenicity test as described in detail by Maron and Ames were followed exactly. Maron, D. M. and B. N. Ames, Mutation Research 113:173 (1983). A brief description for each procedure is given here. The tester strains TA97a, TA98, TA100, TA102, TA1537 and TA1538 were obtained from Dr. Ames. TA97a, TA98, TA1537 and TA1538 are frameshift tester strains. TA100 and TA102 are base-substitution tester strains. Upon receipt each strain was cultured under a variety of conditions to confirm the genotypes specific to the strains.
The first tests done with the strains were to determine the range of spontaneous reversion for each of the strains. With each mutagenicity experiment the spontaneous reversion of the tester strains to histidine independence was measured and expressed as the number of spontaneous revertants per plate. This served as the background controls.
For all experiments, the pre-incubation procedure was used. In this procedure one vial of each tester strain was thawed and 20 μL of this culture was added to 6 mL of Oxoid Nutrient Broth #2. This solution was allowed to shake for 10 hours at 37° C. In the pre-incubation procedure, 0.1 mL of this overnight culture was added to each of the required number of sterile test tubes. To half of the tubes 0.5 mL of a 10% S-9 solution containing Aroclor 1254 induced rat liver extract (Molecular Toxicology Inc., Annapolis, MD), and MgCl2, KCl, glucose-6-phosphate, NADP, and sodium phosphate buffer (Sigma, St. Louis. Mo.) were added. To the other half of the tubes 0.5 mL of 0.2M sodium phospate buffer, pH 7.4, was used in place of the S-9 mixture (the -S9 samples) Finally 0.1 mL of the test solution containing either 0.0.1, 0.5, 1, 5, 10, 50, 100, 250, or 500 μg/mL of the test compound was added. The 0.7 mL mixture pre-incubated while shaking for 20 minutes at 37° C. After shaking, 2 mL of molten top agar supplemented with histidine and biotin were added to the 0.7 mL mixture and immediately poured onto a minimal glucose agar plate (volume of base agar was 20 ml.). The top agar was allowed 30 minutes to solidify and then the plates were inverted and incubated for 44 hours at 37° C. After incubation the number of revertant colonies on each plate were counted. […] (“n” represents the number of replicates performed for each data point.)
Maron and Ames (1983) describe the conflicting views with regard to the statistical treatment of data generated from the test.

Compound | HIV Log Kill 16 μM (cell-free virus (HIV)) [log] | HIV Log Kill 32 μM (cell-free virus (HIV)) [log] | HIV Log Kill 64 μM (cell-free virus (HIV)) [log] | R17 inactivation compared with AMT (R17) | revertant colonies per plate, positive control (TA100)
Cc1oc2c(C)c3oc(=O)cc(C)c3cc2c1CNCCCOCCCCOCCN [Compound 9] | 0.8 | 1.4 | 2.7 | – | –
Cc1oc2c(C)c3oc(=O)cc(C)c3cc2c1CNCCCCCN.Cl.Cl [Compound 10, 4′-(7-amino-2-aza)heptyl-4,5′,8-trimethylpsoralen dihydrochloride] | 2.0 | >3.5 | >3.5 | more efficient at inactivating R17 than was AMT | –
Cc1oc2c(C)c3oc(=O)cc(C)c3cc2c1CNCCCNCCCN [Compound 12] | 0.4 | 0.8 | 1.3 | more efficient at inactivating R17 than was AMT | –
Cc1oc2c(C)c3oc(=O)cc(C)c3cc2c1CNCCCNCCCCNCCCN.Cl.Cl.Cl.Cl [Compound 15, 4′-(14-Amino-2,6,11-triaza)tetradecyl-4,5′,8-trimethylpsoralen Tetrahydrochloride] | – | – | – | more efficient at inactivating R17 than was AMT | –
Cc1cc(=O)oc2c(C)c3oc(CNCCCCN)c(C)c3cc12.Cl.Cl [Compound 17, 5′-(6-Amino-2-aza)hexyl-4,4′,8-trimethylpsoralen Dihydrochloride] | 1.2 | – | 3.4 | more efficient at inactivating R17 than was AMT | –
Cc1cc(=O)oc2c(C)c3oc(COCCN)c(C)c3cc12 [Compound 18] | 1.0 | 1.0 | 3.1 | – | –
[N-]=[N+]=[N-] [sodium azide, reference compound] | – | – | – | – | 965
